Reference: US20160002310A1, “MODIFIED INGAP PEPTIDES FOR TREATING DIABETES” (THE ROYAL INSTITUTE FOR THE ADVANCEMENT OF LEARNING/MCGILL …, priority 2013, published 2016)
Entries after “also recorded” stand apart in the source; their conditions may differ. Positions of bridges follow the written chain, without caps; N, C: chain ends. Residues, ends and D or L forms follow the SMILES beside them. No end group written: not given here.

Experiments:
Erk½ = experiment: Effect of pharmacological inhibitors on INGAP-induced Erk½ phosphorylation in RIN-m5F cells; format: cell-based, rat; details: for Effect of inhibitor on INGAP-induced Erk½ phosphorylation: inhibitor pretreatment, 10 min growth factor
Protocol: 1×10^6 cells were plated in 60 mm plates for 48 hours followed by a 24-h starvation in serum-free medium. Prior to addition of growth factors, cells were pretreated for 30-40 min with the indicated inhibitors, except for Pertussis Toxin (Ptx)(24 h pretreatment). After a 10 min treatment with growth factors, cells were placed on ice and lysed, as described in the Experimental Procedures. Blots (30 μg of proteins) were incubated with Phospho-Erk½ antibody (or with total Erk antibody after stripping) and developed using ECL reagent. Quantification of Erk phosphorylation relative to total Erk and time 0 min control (=1, shown as a dotted line) was performed as described above. (A): Inhibitors of GPCR (Ptx, 100 ng/m1), adenylate cyclase (SQ22536, 250 μM) and PKA (PKi, 100nM; H89, 1μM). (B): inhibitors of PKC (Bis, 1 μM), PI3K (Wm, 100 nM), Src(PP2, 100nM), EGFR(AG1478, 100nM) and Raf Inhibitor l(R-1, 100nM), or DMSO as a solvent (*: p<0.05).
(§1) To investigate signaling events implicated in INGAP induced proliferation, we employed specific pharmacological inhibitors of Raf (Raf inhibitor 1), PI3 K (wortmannin), PKC (Bis), PKA (H89, PKi), Adenylate cyclase (SQ22536), Src (PP2) and EGFR (AG1478). In addition, Pertussis toxin (Ptx) was used to examine whether INGAP actions were mediated by a GPCR. Effectiveness of these inhibitors was judged by Erk½ phosphorylation after 10 min of treatment with INGAP or EGF or Ex-4, and by BrdU incorporation after 24 h.

RIN-m5F cells [1] = experiment: Effect of pharmacological inhibitors on INGAP-induced BrdU incorporation in RIN-m5F cells; format: cell-based, rat; details: inhibitor pretreatment, 24 h
Protocol: Cells were plated in chamber slides and subjected to 30−40 min pretreatment with the indicated inhibitors prior to the addition of growth factors and incubated for 24 h. […] BrdU was added for the last three hours of treatment followed by fixation in Methanol and immunostaining for BrdU. Data are presented as a ratio of BrdU(+) cells (%) in treated versus untreated control. Results are means±S.E. of three independent experiments (*: p<0.05, †: p<0.001).
as §1

[2] = Peptide stability in RPMI-1640 medium with 25% FBS, HPLC; format: in vitro ADME; details: for Comparative peptide stability in FBS: 50 μM peptide; for half-life at 50 μM: bovine
Protocol: (§2) 50 μM peptides were incubated in RPMI-1640 medium with 25% FBS for the times indicated. Following ethanol precipitation of serum proteins, samples were analyzed by HPLC. To compare dynamics of peptide degradation HPLC profiles were superimposed as shown.
(§3) 50 μM INGAP-PC and INGAP 19C were incubated in RPMI-1640 medium with 25% FBS for the times indicated. Following ethanol precipitation of serum proteins, samples were analyzed by HPLC. To compare dynamics of peptide degradation, HPLC profiles were superimposed as shown.
as §2, with “Degradation profiles of INGAP-P and INGAP-19 peptides in presence of serum were determined (FIG. 20). 50” for “50”
as §3, with “Time-course studies of in vitro incubation of INGAP-PC and INGAP-19C peptides in FBS were also performed (FIG. 21). 50” for “50”

[3] = Stability of 5-FAM labeled INGAP analogs in serum and pancreas of non-diabetic mice after IP injection; format: in vivo; details: 500 mg/mouse IP, 10 min to 2 h
Protocol: Prior to the start of the STZ experiments, we tested the stability of INGAP analogs in the serum of non-diabetic mice by injecting 5-FAM labeled INGAP analogs (custom made at Canpeptide, Pointe Claire) at […] IP . The analogs were FAM labeled to determine the post-injection time needed for the peptides to reach the pancreas and to potentially identify the target cells. Mice were sacrificed after 10 min, 30 min, 1 h and 2 h (three mice per group) and blood and tissue samples were collected for processing. Blood serum was precipitated with methanol (1:3) to remove serum proteins and the resulting supernatant was analyzed by HPLC to detect presence of INGAP peptides.
These experiments need to be repeated by using cryosections vs paraffin section to minimize a potential loss of the fluorescence.

[4] = system: STZ (streptozotocin)-induced diabetes; parameters: species or system mice; details: mouse, in vivo, ip
Protocol: In this part of the study, we used a well established model of STZ (streptozotocin)-induced diabetes, resulting in a substantial destruction of beta cell mass. Previous studies conducted in our lab have shown islet neogenic effects of INGAP-peptide (15 L) and INGAP protein after the 8-week administration daily.
Referring to FIG. 42, C57BL/6 J mice (Charles River) 20-25 g, were rendered diabetic by a single injection of 150 mg/kg of STZ. The animals with blood glycemias of 15-30 mM after 7 days were used for the experiment. At 7 days, mice were randomized into 5 groups, 10 mice per group, equal representation of each glycemia level, (average glycemia per group being 24.4+0.0167 mM) and were treated with […] of one of the analogs, IP, daily for 10 weeks. Blood glycemia values were taken weekly from the tip of the tail (fasting and/or non-fasting). The weight of animals was also taken weekly.
After 10 weeks of treatment, the animals were sacrificed and the pancreata were weighed and processed for RNA extraction (still ongoing) and Immunocytochemistry.

RIN-m5F cells [5] = experiment: BrdU incorporation (proliferation) in RIN-m5F cells, 24 h; format: cell-based, rat; details: positive control
Protocol: (A): INGAP increased BrdU incorporation. RIN-m5F cells were treated with indicated amounts of INGAP-P or r-INGAP for 24 h in chamber slides. Exendin 4 (Ex4) and EGF were used as controls. 50 μM BrdU was added for the last three hours of treatment followed by fixation in methanol and immunostaining for BrdU. Data are presented as a ratio of BrdU(+) cells (%) in INGAP-treated to untreated control. Results are means±S.E. of three independent experiments (*: p<0.05, §: p<0.001, compared to untreated control). (B): INGAP induced phosphorylation of Erk½ in RIN-m5F. RIN-m5F cells (1×10^6) plated in 60 mm tissue culture plates were treated with INGAP for the times indicated. Blots (30 μg protein) were probed with anti-Erk½-Phospho (Thr202/Tyr204) antibody, followed by stripping/reprobing with anti-total Erk½ antibody (Cell Signaling) and quantified by densitometry, using ImageJ software. (C): Quantification of relative Erk½ phosphorylation measured as a ratio of Phospho-Erk½ to total Erk½ and shown as a Fold Change relative to the 0 min time point. […]
Cells plated in 8-well or 4-well chamber slides (5×10^4 or 1×10^5 cells per well) were treated for 24 h with INGAP, EGF or Ex 4, as described above, and 50 μM BrdU was added during the last 3 hours of treatment. […] BrdU-positive and negative nuclei were counted (total 200 per well) and the percentage of BrdU-positive nuclei was calculated (FIG. 36).

Akt = Akt phosphorylation in RIN-m5F cells; format: cell-based, rat; details: time course

In the case of `COc1cc2ncnc(Nc3cccc(Cl)c3)c2cc1OC` [AG1478], the “Effect of inhibitor on INGAP-induced Erk½ phosphorylation” value (Erk½) is reported as “not affected”.

For `O=S(=O)(NCCNC/C=C/c1ccc(Br)cc1)c1cccc2cnccc12` [H89], the “Effect of inhibitor on BrdU incorporation induced by growth factors” value (“Effect of inhibitor … by growth factors” for short) (RIN-m5F cells [1]) was “reduced BrdU incorporation in rINGAP treated cells”.

With `CC[C@H](C)[C@@H]1NC(=O)[C@H](Cc2c[nH]c3ccccc23)NC(=O)[C@H]([C@@H](C)CC)NC(=O)[C@@H](N)CSSC[C@@H](C(=O)O)NC(=O)[C@H](Cc2c[nH]c3ccccc23)NC(=O)CNC(=O)[C@H](CO)NC(=O)CNC(=O)[C@H](CC(N)=O)NC(=O)[C@@H]2CCCN2C(=O)[C@H](CC(C)C)NC(=O)[C@H]([C@@H](C)O)NC(=O)CNC(=O)[C@H](Cc2c[nH]cn2)NC(=O)[C@H](CO)NC(=O)[C@@H]2CCCN2C(=O)[C@H](CC(=O)O)NC(=O)[C@H](Cc2c[nH]cn2)NC(=O)[C@H](CC(C)C)NC(=O)CNC1=O` [INGAP-19C] (H-CIWIGLHDPSHGTLPNGSGWC-OH; disulfide 1-21) the “Comparative peptide stability in FBS” value ([2]; RPMI-1640 with 25% FBS) was “highest stability; also recorded: more stable than linear 15-mer (INGAP-P) or 19-mer (INGAP-19) peptides”, the “Degradation in presence of serum” value ([2]; 48 h, 50 μM, RPMI-1640 with 25% FBS) was “no degradation” and the “Time stable in culture medium” value ([2]; culture medium, preliminary HPLC data) was “up to 48 h”. For the same molecule, the “Presence of peptide in blood serum after injection (HPLC)” value [3] was “still detectable at 2 h” and the “Losses of animals in group” value [4] was 1.

For `CC[C@H](C)[C@@H]1NC(=O)[C@@H](N)CSSC[C@@H](C(=O)O)NC(=O)[C@H](CO)NC(=O)CNC(=O)[C@H](CC(N)=O)NC(=O)[C@@H]2CCCN2C(=O)[C@H](CC(C)C)NC(=O)[C@H]([C@@H](C)O)NC(=O)CNC(=O)[C@H](Cc2c[nH]cn2)NC(=O)[C@H](CO)NC(=O)[C@@H]2CCCN2C(=O)[C@H](CC(=O)O)NC(=O)[C@H](Cc2c[nH]cn2)NC(=O)[C@H](CC(C)C)NC(=O)CNC1=O` [INGAP-PC, N′-CIGLHDPSHGTLPNGSC-C′] (H-CIGLHDPSHGTLPNGSC-OH; disulfide 1-17), the half-life ([2]; buffer, culture medium, preliminary HPLC data) was 4 to 6 h and the “Losses of animals in group” value [4] was “no losses”.

In the case of `COc1cccc(-c2cc(=O)c3ccccc3o2)c1N` [PD98059], the “Effect of inhibitor on INGAP-induced Erk½ phosphorylation” value (Erk½) is reported as “inhibition” and the “Effect of inhibitor … by growth factors” value (RIN-m5F cells [1]) is reported as “inhibition”.

For `CC(C)(C)n1nc(-c2ccc(Cl)cc2)c2c(N)ncnc21` [PP2], the “Effect of inhibitor on INGAP-induced Erk½ phosphorylation” value (Erk½) was “inhibited both Erk½ phosphorylation (FIG. 8B) and proliferation (FIG. 16) stimulated by r-INGAP, but not by INGAP-P” and the “Effect of inhibitor … by growth factors” value (RIN-m5F cells [1]) was “inhibited both Erk½ phosphorylation (FIG. 8B) and proliferation (FIG. 16) stimulated by r-INGAP, but not by INGAP-P”.

For `Nc1ncnc2c1ncn2C1CCCO1` (stereo not drawn) [SQ22536], the “Effect of inhibitor on INGAP-induced Erk½ phosphorylation” value (Erk½) was “slightly increased it”.

For “EGF: positive control growth factor, signals through a classical RTK pathway”, the “BrdU incorporation, increase compared to negative control” value (RIN-m5F cells [5]; 10 ng/ml) was 1.49 × and the Akt phosphorylation (Akt) was “early activation of Akt”.

For Exendin 4, the “BrdU incorporation, increase compared to negative control” value (RIN-m5F cells [5]; 10 nM) was 1.56 × and the Akt phosphorylation (Akt) was “strongest activation of Akt”.

For “IGLHDPSHGTLPNGS [INGAP-P, N′-IGLHDPSHGTLPNGS-C′]”, the “Comparative peptide stability in FBS” value ([2]; RPMI-1640 with 25% FBS) was “degraded at a similar rate” and the half-life at 50 μM ([2]; culture medium (RPMI-1640) with 25% fetal bovine serum, culture medium, preliminary HPLC data) was 4 to 6 h.

With “IWIGLHDPSHGTLPNGSGW [INGAP-19, N′-IWIGLHDPSHGTLPNGSGW-C′]” the “Comparative peptide stability in FBS” value ([2]; RPMI-1640 with 25% FBS) was “no advantage of INGAP-19 over INGAP-P”, the half-life at 50 μM ([2]; fetal bovine serum (25%) in RPMI-1640 culture medium, culture medium, preliminary HPLC data) was 4 to 6 h and the “Presence of peptide in blood serum after injection (HPLC)” value [3] was “undetectable at 1 h”.

In the case of Pertussis toxin [Ptx], the “Inhibition of INGAP-induced activation of Erk½” value (Erk½; 24 h exposure to inhibitor, 10 min INGAP) is reported as 40%.
